# Assay results as given in US7803757B2, “Peptides based on the sequence of human lactoferrin and their use” (PharmaSurgics in Sweden AB, priority 1998, dated 2010).
# Bridge positions count the residues as written; N and C are the ends. Square brackets hold non-standard residues; d marks the D form. Ends that are not written are not given here. * marks the point of attachment. Nle = CCCC[C@H](N)C(=O)O; Acm = CC(=O)NC*
# Columns and labels:
# Format in all cases: cell-based
# S. aureus [1] = experiment: MMC99% of modified peptides, S. aureus (Example 26); settings: BHI diluted 1/100, pH approximately 6.7-6.9 (Table 22)
# Procedure: (§1) In the examples, the minimal microbicidal concentrations (MMC) and minimal inhibitory concentrations (MIC) were determined as follows, unless otherwise specified in the examples. Bacterial or fungal strains were cultured in BHI medium over night at 37° C. A volume of the culture was transferred to a new tube with BHI and incubated for two more hours. Thereafter the cells were spun down and the pellet was suspended in BHI medium diluted 1/100 (1% BHI). The concentration of bacterial or fungal cells was spectrophotometrically determined at 650 nm. The microbial concentrations were also determined by viable counts. Peptides serially diluted in 1% BHI by twofold or tenfold steps were added in triplicate to the wells of a microtiterplate (200 μl per well). The bacterial or fungal cell solutions were added in 10 μl volumes to give a final concentration of approximately 1-5×10^5 cells per ml in the well. The microplate was incubated at 37° C. in a humid chamber for two hours. Thereafter 5 μl was taken from each well and added as a drop onto a blood agar plate and incubated over night at 37° C. The microplate was incubated for another 20 hours at 37° C. and thereafter analysed spectrophotometrically at 650 nm in a microplate reader (Emax, Molecular Devices, USA). The concentration of peptide causing a 99% reduction of the inoculum after 2 hours of incubation was defined as the MMC99%. The MIC value was defined as the concentration giving no increase in the absorbance value above the background level after 20 hours of incubation.
# (§2) In this example the fungicidal, and bactericidal effects of the different peptides obtained in example 22 were studied. C. albicans, E. coli and S. aureus, respectively, were incubated in BHI medium diluted 1/100, with a pH of approximately 6.7-6.9. The concentration of each peptide needed to kill 99% of the microorganisms (MMC99%) was determined.
# E. coli [2] = experiment: MMC99% of modified peptides, E. coli (Example 26); settings: BHI diluted 1/100, pH approximately 6.7-6.9 (Table 22)
# Procedure: as §1, §2
# C. albicans [3] = experiment: MMC99% of modified peptides, C. albicans (Example 26); settings: BHI diluted 1/100, pH approximately 6.7-6.9 (Table 22)
# Procedure: as §1, §2
# E. coli O6K5 = experiment: microbicidal activity MMC99%, E. coli O6K5 (Example 28); settings: E. coli O6K5 (Table 24)
# Procedure: as §1
# (§3) In this example the microbicidal activity of eight of the peptides according to the invention was studied, and tested against E. coli O6K5 and C. albicans.
# (§4) The concentration of each peptide needed to kill 99% of the microorganisms (MMC99%) was determined.
# C. albicans [4] = experiment: microbicidal activity MMC99%, C. albicans (Example 28); settings: C. albicans (Table 24)
# Procedure: as §1, §3, §4
# C. albicans [5] = experiment: MMC99% of modified peptides, C. albicans (Example 25); settings: BHI diluted 1/100, pH approximately 6.7-6.9 (Table 21)
# Procedure: as §1
# (§5) In this example the fungicidal, and bactericidal effects of the different peptides obtained in examples 18-21 were studied. C. albicans, E. coli and S. aureus, respectively, were incubated in BHI medium diluted 1/100, with a pH of approximately 6.7-6.9. The concentration of each peptide needed to kill 99% of the microorganisms (MMC99%) was determined.
# S. aureus [6] = experiment: MMC99% of modified peptides, S. aureus (Example 25); settings: BHI diluted 1/100, pH approximately 6.7-6.9 (Table 21)
# Procedure: as §1, §5
# E. coli [7] = experiment: MMC99% of modified peptides, E. coli (Example 25); settings: BHI diluted 1/100, pH approximately 6.7-6.9 (Table 21)
# Procedure: as §1, §5
# E. coli O14 [8] = experiment: bactericidal activity against E. coli O14, comparison with EP-A-0 629 347 peptides (Example 7)
# Procedure: (§6) In this example an in vitro test was performed to compare the bactericidal and fungicidal activity of the peptides according to the invention with peptides described in EP-A-0 629 347. The peptide according to the invention used was peptide 4, and the peptides according to EP-A-0 629 347 called Morinaga 10, Morinaga 11, Morinaga 12, and Morinaga 13.
# (§7) The peptides were incubated with E. coli O14 and Candida albicans. Two concentrations of C. albicans yeast cells were tested, 5·10^6 and 5·10^3 per ml. Different concentrations of the peptides were tested.
# (§8) After the incubation, samples were taken for bacterial plating. Serial dilutions of tenfold steps were used in the experiments marked with I in table 5 and of twofold steps in the experiments marked with II.
# Candida albicans = experiment: fungicidal activity against Candida albicans, comparison with EP-A-0 629 347 peptides (Example 7); settings: C. albicans, I (tenfold steps)
# Procedure: as §6, §7, §8
# [9] = tested on: Candida albicans ATCC 64549; experiment: fungicidal and growth inhibitory activity, Candida albicans ATCC 64549 (Example 8); settings: for Concentration of agent for 100% killing: C. albicans ATCC 64549 1·10^5/ml, 2 hours 37° C., diluted BHI; for Concentration of agent for inhibition of growth: C. albicans ATCC 64549, spectrophotometrically after 20 hours
# Procedure: Candida albicans ATCC 64549 (1·10^5/ml) was incubated in the presence of the peptides during 2 hours at 37° C. in diluted growth medium (BHI, twofold serial dilutions starting with 50 μg/ml). The fungicidal activity was measured by culturing 5 μl from each incubation well on Saboroud agar plates.
# The inhibition of growth was measured spectrophotometrically after 20 hours of incubation.
# E. coli O14 [10] = experiment: bactericidal and growth inhibitory activity, E. coli O14 (Example 9); settings: for Concentration of agent for 100% killing: E. coli O14, 2 hours; for Concentration of agent for inhibition of growth: E. coli O14, spectrophotometrically after 20 hours
# Procedure: E. coli O14 was incubated as described above in the presence of the peptides during 2 hours. The bactericidal activity was measured in the same way as described above.
# The inhibition of growth was measured spectrophotometrically after incubation during 20 hours.
# S. aureus [11] = experiment: killing of bacteria at fixed peptide concentration, S. aureus (Example 12); settings: peptide 25 μg/ml
# Procedure: (§9) In this example, the peptides according to the invention were used to study the effect on the killing of different bacteria.
# (§10) The peptides were used at a concentration of 25 μg/ml.
# K. pneumoniae = experiment: killing of bacteria at fixed peptide concentration, K. pneumoniae (Example 12); settings: peptide 25 μg/ml
# Procedure: as §9, §10
# E. coli O6 = tested on: E. coli O6
# Procedure: as §1
# (§11) C. albicans (ATCC64549) and E. coli O6, respectively, were incubated with the different peptides. The experiments were performed with 1, 10, 25 and 100 μg/ml of peptide.
# C. albicans (ATCC64549) = tested on: C. albicans (ATCC64549)
# Procedure: as §1, §11
# [12] = tested on: C. albicans yeast cells (ATCC64549); experiment: killing and growth inhibition of C. albicans at pH 4.5 (Example 11); design: key to C. albicans inhibition (OD650): + = no increase in OD650 is seen; − = OD650 continues to increase; settings: pH 4.5, 1% BHI, 25 μg/ml of the peptide
# Procedure: C. albicans yeast cells (ATCC64549) were incubated for 2 hours at pH 4.5 in BHI medium diluted to 1% of the original concentration containing 25 µg/ml of the peptide. Thereafter the fungal solutions were cultured on blood agar plates. OD650 was measured after incubation during an additional 18 hours. The fungicidal effect of the peptides on C. albicans was determined as the ability of the peptide to kill 100% and 99%, respectively, of the fungus, while the growth inhibitory effect was determined by measuring the OD650. An inhibitory effect existed when no increase in OD650 was recorded.
# E. faecalis = experiment: killing of bacteria at fixed peptide concentration, E. faecalis (Example 12); settings: peptide 25 μg/ml
# Procedure: as §9, §10
# P. aeruginosa = experiment: killing of bacteria at fixed peptide concentration, P. aeruginosa (Example 12); settings: peptide 25 μg/ml
# Procedure: as §9, §10
# S. epidermis = experiment: killing of bacteria at fixed peptide concentration, S. epidermis (Example 12); settings: peptide 25 μg/ml
# Procedure: as §9, §10
# [13] = E. coli O14, I: serial dilutions of tenfold steps
substance,measurement,setting,value
C-F-A-L-K-K-A-M-K-K-V-R (CFALKKAMKKVR) [SEQ. ID. NO. 96],MMC99%,S. aureus [1],12
same,MMC99%,E. coli [2],6
same,MMC99%,C. albicans [3],12
C-F-A-W-K-R-N-M-R-K-V-R (CFAWKRNMRKVR) [SEQ. ID. NO. 93],MMC99%,E. coli O6K5,5
same,MMC99%,S. aureus [1],6
same,MMC99%,E. coli [2],6
same,MMC99%,C. albicans [4],5
same,MMC99%,C. albicans [3],12
C-F-A-W-Q-R-A-M-R-K-V-R (CFAWQRAMRKVR) [SEQ. ID. NO. 94],MMC99%,S. aureus [1],6
same,MMC99%,E. coli [2],6
same,MMC99%,C. albicans [3],12
C-F-Q-L-Q-K-N-M-K-K-V-R (CFQLQKNMKKVR) [SEQ. ID. NO. 95],MMC99%,S. aureus [1],6
same,MMC99%,E. coli [2],6
same,MMC99%,C. albicans [3],12
C-F-Q-W-K-R-N-M-R-K-V-R (CFQWKRNMRKVR) [SEQ. ID. NO. 91],MMC99%,E. coli O6K5,5
same,MMC99%,S. aureus [1],6
same,MMC99%,E. coli [2],6
same,MMC99%,C. albicans [4],5
same,MMC99%,C. albicans [3],6
C-F-Q-W-Nle-R-N-M-R-K-V-R (CFQW[Nle]RNMRKVR) [SEQ. ID. NO. 88],MMC99%,C. albicans [5],6
same,MMC99%,E. coli O6K5,5
same,MMC99%,S. aureus [6],3.5
same,MMC99%,E. coli [7],12
same,MMC99%,C. albicans [4],10
F-Q-W-Q-R [Morinaga 11],Concentration of agent for 100% killing,E. coli O14 [8]; [13],>500 µg/mL
same,Concentration of agent for 100% killing,Candida albicans; 5 · 10^3 yeast cells per ml,>2000 µg/mL
same,Concentration of agent for 100% killing,Candida albicans; 5 · 10^6 yeast cells per ml,>2000 µg/mL
F-Q-W-Q-R-N (FQWQRN) [Morinaga 10],Concentration of agent for 100% killing,E. coli O14 [8]; [13],>500 µg/mL
same,Concentration of agent for 100% killing,"E. coli O14 [8]; E. coli O14, II: serial dilutions of twofold steps",1000 µg/mL
same,Concentration of agent for 100% killing,Candida albicans; 5 · 10^3 yeast cells per ml,>2000 µg/mL
same,Concentration of agent for 100% killing,Candida albicans; 5 · 10^6 yeast cells per ml,>2000 µg/mL
"KCFQWQRNMRKVRGPPVSCI [Morinaga 24] (KCFQWQRNMRKVRGPPVSCI; also: cyclic peptide, ring type not given here) [reference compound]",Concentration of agent for 100% killing,[9],12.5 µg/mL
same,Concentration of agent for inhibition of growth,[9],12.5 µg/mL
same,Concentration of agent for 100% killing,E. coli O14 [10],25 µg/mL
same,Concentration of agent for inhibition of growth,E. coli O14 [10],6.2 µg/mL
KCFQWQRNMRKVRGPPVSCI [Morinaga 25] (KCFQWQRNMRKVRGPPVSCI) [reference compound],Concentration of agent for 100% killing,[9],6.2 µg/mL
same,Concentration of agent for inhibition of growth,[9],6.2 µg/mL
same,Concentration of agent for 100% killing,E. coli O14 [10],12.5 µg/mL
same,Concentration of agent for inhibition of growth,E. coli O14 [10],3.1 µg/mL
"Peptide 2: SEQ. ID. NO. 1 with X1 E, X2 A, X5 C, X7 Q, X11 N, X17-25 G-P-P-V-S-C-I-K-R; cysteines acetamidomethyl protected (Ac-EATKC(Acm)FQWQRNMRKVRGPPVSC(Acm)IKR-NH2)",Concentration of agent for 100% killing,[9],6.2 µg/mL
same,Concentration of agent for inhibition of growth,[9],6.2 µg/mL
same,Concentration of agent for 100% killing,E. coli O14 [10],25 µg/mL
same,Concentration of agent for inhibition of growth,E. coli O14 [10],6.2 µg/mL
Q-W-Q-R [Morinaga 12],Concentration of agent for 100% killing,E. coli O14 [8]; [13],>500 µg/mL
same,Concentration of agent for 100% killing,Candida albicans; 5 · 10^3 yeast cells per ml,>2000 µg/mL
same,Concentration of agent for 100% killing,Candida albicans; 5 · 10^6 yeast cells per ml,>2000 µg/mL
SEQ. ID. NO. 55: modification of SEQ. ID. NO. 7 wherein the Asp in position 9 is substituted with a Glu (TKAFKWQREMRKVR; lactam 5-9),MMC99%,E. coli O6K5,5
same,MMC99%,C. albicans [4],5
SEQ. ID. NO. 97: listed under the third and fourth embodiments; sequence only in the appended sequence listing (CFALKKAMKKVR),MMC99%,S. aureus [1],6
same,MMC99%,E. coli [2],6
same,MMC99%,C. albicans [3],12
TKCFQWQRNMRKVR [Peptide 50],killing of bacteria: S. aureus,S. aureus [11],+ (+ = 99% of the bacteria are killed)
same,killing of bacteria: K. pneumoniae,K. pneumoniae,+ (+ = 99% of the bacteria are killed)
same,MMC99%,"E. coli O6; E. coli O6, tested at 1, 10, 25 and 100 μg/ml of peptide",10 µg/mL
same,MIC,E. coli O6; O6,10 µg/mL
same,MIC,C. albicans (ATCC64549); ATCC64549,10 µg/mL
same,MMC99%,"C. albicans (ATCC64549); C. albicans, tested at 1, 10, 25 and 100 μg/ml of peptide",10 µg/mL
same,C. albicans inhibition (OD650),[12]; OD650 after an additional 18 hours,+
same,C. albicans killing: 99%,[12]; 2 hours,+ (+ = 100/99% of the bacteria are killed)
same,C. albicans killing: 100%,[12]; 2 hours,+ (+ = 100/99% of the bacteria are killed)
same,killing of bacteria: E. faecalis,E. faecalis,+ (+ = 99% of the bacteria are killed)
same,killing of bacteria: P. aeruginosa,P. aeruginosa,+ (+ = 99% of the bacteria are killed)
same,killing of bacteria: S. epidermis,S. epidermis,+ (+ = 99% of the bacteria are killed)
W-Q-R [Morinaga 13],Concentration of agent for 100% killing,E. coli O14 [8]; [13],>500 µg/mL
same,Concentration of agent for 100% killing,Candida albicans; 5 · 10^3 yeast cells per ml,>2000 µg/mL
same,Concentration of agent for 100% killing,Candida albicans; 5 · 10^6 yeast cells per ml,>2000 µg/mL
